The record followed here is patent US8901118B2, “Compounds and methods for kinase modulation, and indications therefor” (Plexxikon Inc., priority 2010, dated 2014).

Format in all cases: cell-based
One assay addresses T1, BCR-KIT BaF3 cells (Homo sapiens, UniProt P10721).
T1 construct: fused on or other part: P11274 (Breakpoint cluster region protein)
Description: BaF3 BCR-KIT cell proliferation assay (ATPlite). To be noted: read-out: Inhibition of Cell Proliferation IC50, BCR/BaF3 Kit. The method, then:
(§1) Compounds are assessed in a variety of cell based assays. For example BaF3 cells engineered with any of BCR-FMS, BCR-KIT, BCR-FLT3, BCR-NTRK1, BCR-NTRK2, and BCR-NTRK3, are used in cell proliferation assays to assess inhibitory activity of Fms, Kit, Flt-3, TrkA, TrkB, and TrkC, respectively. An MV-4-11 (leukemia) cell proliferation assay is used to assess inhibitory activity in Flt-3, and SKNSH (human neuroblastoma) cell proliferation assay is used to assess efficacy of Fms/Trk inhibitors. Additional cells may be assayed similarly to assess the efficacy of Fms/Trk inhibitors, such as MiaPaCa (human pancreatic cancer) and Capan-1 (human pancreatic carcinoma) cells. Reagent and assay conditions are as follows: • BaF3 cells: • Maintained in RPMI containing 10% FBS, 1% PenStrep, 1% NEAA, and 1% L-Glutamine, supplemented with 1 mg/mL G418 and 5% WEHI-CM (or recombinant murine IL-3). • Confluent cells are split 1:50 to 1:100 every 3-4 days. • MV-4-11 cells: • Maintained in Iscove's Modified Dulbecco's Medium containing 10% FBS. • Confluent cells are split 1:4 every 3-4 days. • SKNSH cells: RPMI containing 10% FBS. On day 1, cells are counted, then centrifuged in a conical tube for 5 minutes at 1000 rpm. The supernatant is removed and cells are re-suspended as follows: • BaF3: resuspend in growth media +1 mg/mL G418 (without WEHFIL-3) to 2×10^5 cells/mL. • MV-4-11: resuspend in growth media to 5×10^5 cells/mL. • SKNSH: resuspend in growth media to 2×10^4 cells/mL. The cells are plated (50 μL, 150 μL for SKNSH cells) in each well of a 96-well dish (Corning 3610) and incubated at 37° C. in 5% CO2 overnight, cells plated to a final concentration of cells as follows: • BaF3: 10,000 cells per well. • MV-4-11: 25,000 cells per well. • SKNSH: 3,000 cells per well. On day 2, compound at a maximum concentration of 5 mM is serially diluted 1:3 for a total of 8 point titration with DMSO as a control. A 1 μL aliquot of each dilution point is added to 249 μL growth media and 50 μL is added to a well containing cells, providing 10 μM compound for the maximum concentration point. The cells are incubated for 3 days at 37° C. in 5% CO2. For SKNSH cells, a 0.75 μL aliquot of appropriate dilution in DMSO is added to 150 μL of cells. On day 5, ATPlite 1 step Luminescence Assay System (Perkin Elmer #6016739) is brought to room temperature along with the cell cultures. ATPlite is added to each well as follows: • BaF3: 25 μL per well. • MV-4-11: 40 μL per well. • SKNSH: 20 μL per well. The cells are incubated at room temperature for 10 minutes, then luminescence is read on Safire reader. The measured luminescence correlates directly with cell number, such that the reading as a function of compound concentration is used to determine the IC50 value.
(§2) It is understood that the results of these assays may vary as assay conditions are varied. Inhibition levels determined under the conditions described herein represent a relative activity for the compounds tested under the specific conditions employed. The cell based assays are likely to show variability due to the complexity of the system and the sensitivity thereof to any changes in the assay conditions. […] Results for compounds that are tested and show substantially no inhibition below the highest tested concentration are represented as “-” in the tables below. In some instances, the compounds were not tested in all of the assays, or assay results were not valid, as indicated by NA in the tables below.

Another assay concerns the target T2, BCR-NTRK2 BaF3 cells (Homo sapiens, UniProt Q16620).
T2 construct: fused on or other part: P11274 (Breakpoint cluster region protein)
Description: BaF3 BCR-NTRK2 cell proliferation assay (ATPlite). As to conditions: read-out: Inhibition of Cell Proliferation IC50, BCR/BaF3 TrkB. The method, then: as §1, §2

For a further assay, the target named is T3, BCR-NTRK1 BaF3 cells (Homo sapiens, UniProt P04629).
T3 construct: fused on or other part: P11274 (Breakpoint cluster region protein)
Description: BaF3 BCR-NTRK1 cell proliferation assay (ATPlite). As to conditions: read-out: Inhibition of Cell Proliferation IC50, BCR/BaF3 TrkA. As for the experimental part: as §1, §2

T1 sequence (P10721 589-937): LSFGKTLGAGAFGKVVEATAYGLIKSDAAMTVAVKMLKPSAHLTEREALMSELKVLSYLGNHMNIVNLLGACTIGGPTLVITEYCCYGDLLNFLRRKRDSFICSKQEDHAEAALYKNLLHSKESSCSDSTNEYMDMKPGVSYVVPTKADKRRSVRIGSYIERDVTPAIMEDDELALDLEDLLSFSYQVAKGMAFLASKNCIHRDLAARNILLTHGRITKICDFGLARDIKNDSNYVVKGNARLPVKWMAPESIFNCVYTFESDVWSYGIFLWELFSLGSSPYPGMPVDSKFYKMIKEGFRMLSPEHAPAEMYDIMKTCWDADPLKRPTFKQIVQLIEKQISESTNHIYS
T2 sequence (Q16620 538-807): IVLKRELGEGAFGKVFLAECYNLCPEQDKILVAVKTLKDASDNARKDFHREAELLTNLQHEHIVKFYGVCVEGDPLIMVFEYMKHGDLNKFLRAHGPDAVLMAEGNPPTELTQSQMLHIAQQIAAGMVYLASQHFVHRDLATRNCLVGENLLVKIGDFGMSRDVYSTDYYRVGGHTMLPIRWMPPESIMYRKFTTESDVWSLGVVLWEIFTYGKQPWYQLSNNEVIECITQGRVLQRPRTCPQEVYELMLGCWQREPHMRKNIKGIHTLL
T3 sequence (P04629 510-781): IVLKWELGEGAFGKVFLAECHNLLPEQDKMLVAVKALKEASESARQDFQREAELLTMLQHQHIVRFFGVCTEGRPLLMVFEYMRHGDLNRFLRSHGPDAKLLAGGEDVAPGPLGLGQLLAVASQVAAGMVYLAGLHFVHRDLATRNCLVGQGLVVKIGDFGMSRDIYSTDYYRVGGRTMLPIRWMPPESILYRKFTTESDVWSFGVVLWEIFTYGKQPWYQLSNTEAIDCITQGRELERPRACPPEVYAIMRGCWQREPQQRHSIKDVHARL

`CNc1ncnc2[nH]cc(C(=O)c3ccc(NC4CCC(F)(F)CC4)nc3F)c12` [Compound P-4063, [6-[(4,4-difluorocyclohexyl)amino]-2-fluoro-3-pyridyl]-[4-(methylamino)-7H-pyrrolo[2,3-d]pyrimidin-5-yl]methanone]: the results for the IC50 at BCR-KIT BaF3 cells, on BCR-NTRK2 BaF3 cells and on BCR-NTRK1 BaF3 cells were < 0.1 µM, < 0.1 µM and < 0.01 µM, respectively.
`CCc1ccc(Nc2ccc(C(=O)c3c[nH]c4ncnc(NCC(C)(C)O)c34)c(F)n2)cn1` [Compound P-4064, [6-[(6-ethyl-3-pyridyl)amino]-2-fluoro-3-pyridyl]-[4-[(2-hydroxy-2-methyl-propyl)amino]-7H-pyrrolo[2,3-d]pyrimidin-5-yl]methanone]: the results for the IC50 at BCR-KIT BaF3 cells, on BCR-NTRK2 BaF3 cells and at BCR-NTRK1 BaF3 cells were < 0.1 µM, < 0.01 µM and < 0.1 µM, respectively.
As to `CCc1ccc(Nc2ccc(C(=O)c3c[nH]c4ncnc(N)c34)c(F)n2)cn1` [Compound P-4065, (4-amino-7H-pyrrolo[2,3-d]pyrimidin-5-yl)-[6-[(6-ethyl-3-pyridyl)amino]-2-fluoro-3-pyridyl]methanone], the values for the IC50 on BCR-KIT BaF3 cells, on BCR-NTRK2 BaF3 cells and on BCR-NTRK1 BaF3 cells were < 0.1 µM, < 0.01 µM and < 0.1 µM, respectively.
As to `COc1ccc(Nc2ccc(C(=O)c3c[nH]c4ncnc(NC(C)C)c34)c(F)n2)cn1` [Compound P-4066, [2-fluoro-6-[(6-methoxy-3-pyridyl)amino]-3-pyridyl]-[4-(isopropylamino)-7H-pyrrolo[2,3-d]pyrimidin-5-yl]methanone], the IC50 at BCR-KIT BaF3 cells, on BCR-NTRK2 BaF3 cells and on BCR-NTRK1 BaF3 cells was < 0.01 µM in each case.
Take `COc1ccc(Nc2ccc(C(=O)c3c[nH]c4ncnc(NCC5CC5)c34)c(F)n2)cn1` [Compound P-4067, [4-(cyclopropylmethylamino)-7H-pyrrolo[2,3-d]pyrimidin-5-yl]-[2-fluoro-6-[(6-methoxy-3-pyridyl)amino]-3-pyridyl]methanone]: the IC50 is < 0.1 µM on BCR-KIT BaF3 cells, < 0.01 µM on BCR-NTRK2 BaF3 cells and < 0.01 µM at BCR-NTRK1 BaF3 cells.
For `CCCNc1ncnc2[nH]cc(C(=O)c3ccc(Nc4ccc(OC)nc4)nc3F)c12` [Compound P-4068, [2-fluoro-6-[(6-methoxy-3-pyridyl)amino]-3-pyridyl]-[4-(propylamino)-7H-pyrrolo[2,3-d]pyrimidin-5-yl]methanone], the values for the IC50 on BCR-KIT BaF3 cells, at BCR-NTRK2 BaF3 cells and on BCR-NTRK1 BaF3 cells were < 0.1 µM, < 0.01 µM and < 0.01 µM, respectively.
For `COc1ccc(Nc2ccc(C(=O)c3c[nH]c4ncnc(N5CCCCC5)c34)c(F)n2)cn1` [Compound P-4069, [2-fluoro-6-[(6-methoxy-3-pyridyl)amino]-3-pyridyl]-[4-(1-piperidyl)-7H-pyrrolo[2,3-d]pyrimidin-5-yl]methanone], the IC50 at BCR-KIT BaF3 cells, at BCR-NTRK2 BaF3 cells and at BCR-NTRK1 BaF3 cells was > 1 µM throughout.
`COc1ccc(Nc2ccc(C(=O)c3c[nH]c4ncnc(N5CCOCC5)c34)c(F)n2)cn1` [Compound P-4070, [2-fluoro-6-[(6-methoxy-3-pyridyl)amino]-3-pyridyl]-(4-morpholino-7H-pyrrolo[2,3-d]pyrimidin-5-yl)methanone]: the IC50 on BCR-KIT BaF3 cells, on BCR-NTRK2 BaF3 cells and at BCR-NTRK1 BaF3 cells was > 1 µM each time.
With `COc1ccc(Nc2ccc(C(=O)c3c[nH]c4ncnc(NCc5ccc(C(F)(F)F)nc5)c34)c(F)n2)cn1` [Compound P-4071, [2-fluoro-6-[(6-methoxy-3-pyridyl)amino]-3-pyridyl]-[4-[[6-(trifluoromethyl)-3-pyridyl]methylamino]-7H-pyrrolo[2,3-d]pyrimidin-5-yl]methanone], the IC50 on BCR-KIT BaF3 cells, at BCR-NTRK2 BaF3 cells and at BCR-NTRK1 BaF3 cells was < 0.1 µM in each case.
For `COc1ccc(Nc2ccc(C(=O)c3c[nH]c4ncnc(N[C@@H](C)c5ccc(F)cc5)c34)c(F)n2)cn1` [Compound P-4072, [2-fluoro-6-[(6-methoxy-3-pyridyl)amino]-3-pyridyl]-[4-[[(1S)-1-(4-fluorophenyl)ethyl]amino]-7H-pyrrolo[2,3-d]pyrimidin-5-yl]methanone], the IC50 at BCR-KIT BaF3 cells was < 1 µM; at BCR-NTRK2 BaF3 cells it was < 0.01 µM; at BCR-NTRK1 BaF3 cells it was < 0.01 µM.
`COc1ccc(Nc2ccc(C(=O)c3c[nH]c4ncnc(NCC5CCCO5)c34)c(F)n2)cn1` (stereo not drawn) [Compound P-4073, [2-fluoro-6-[(6-methoxy-3-pyridyl)amino]-3-pyridyl]-[4-(tetrahydrofuran-2-ylmethylamino)-7H-pyrrolo[2,3-d]pyrimidin-5-yl]methanone]: the IC50 on BCR-KIT BaF3 cells was < 1 µM; on BCR-NTRK2 BaF3 cells, < 0.01 µM; at BCR-NTRK1 BaF3 cells, < 0.1 µM.
Turning to `CCN1CCC(Nc2ncnc3[nH]cc(C(=O)c4ccc(Nc5ccc(OC)nc5)nc4F)c23)CC1` [Compound P-4074, [4-[(1-ethyl-4-piperidyl)amino]-7H-pyrrolo[2,3-d]pyrimidin-5-yl]-[2-fluoro-6-[(6-methoxy-3-pyridyl)amino]-3-pyridyl]methanone], the IC50 on BCR-KIT BaF3 cells was < 1 µM; at BCR-NTRK2 BaF3 cells, < 0.1 µM; on BCR-NTRK1 BaF3 cells, < 0.1 µM.
In the case of `COc1ccc(Nc2ccc(C(=O)c3c[nH]c4ncnc(NC5CCCC5)c34)c(F)n2)cn1` [Compound P-4075, [4-(cyclopentylamino)-7H-pyrrolo[2,3-d]pyrimidin-5-yl]-[2-fluoro-6-[(6-methoxy-3-pyridyl)amino]-3-pyridyl]methanone], the IC50 on BCR-KIT BaF3 cells is < 0.1 µM; on BCR-NTRK2 BaF3 cells, < 0.01 µM; at BCR-NTRK1 BaF3 cells, < 0.01 µM.
Consider `COc1ccc(Nc2ccc(C(=O)c3c[nH]c4ncnc(NC5CCC5)c34)c(F)n2)cn1` [Compound P-4076, [4-(cyclobutylamino)-7H-pyrrolo[2,3-d]pyrimidin-5-yl]-[2-fluoro-6-[(6-methoxy-3-pyridyl)amino]-3-pyridyl]methanone], for which the IC50 is < 0.1 µM on BCR-KIT BaF3 cells, < 0.01 µM at BCR-NTRK2 BaF3 cells and < 0.01 µM at BCR-NTRK1 BaF3 cells.
As for `CCC(CC)Nc1ncnc2[nH]cc(C(=O)c3ccc(Nc4ccc(OC)nc4)nc3F)c12` [Compound P-4077, [4-(1-ethylpropylamino)-7H-pyrrolo[2,3-d]pyrimidin-5-yl]-[2-fluoro-6-[(6-methoxy-3-pyridyl)amino]-3-pyridyl]methanone], the results for the IC50 at BCR-KIT BaF3 cells, on BCR-NTRK2 BaF3 cells and on BCR-NTRK1 BaF3 cells were < 0.1 µM, < 0.01 µM and < 0.01 µM, respectively.
Turning to `CCC(C)Nc1ncnc2[nH]cc(C(=O)c3ccc(Nc4ccc(OC)nc4)nc3F)c12` (stereo not drawn) [Compound P-4078, [2-fluoro-6-[(6-methoxy-3-pyridyl)amino]-3-pyridyl]-[4-(sec-butylamino)-7H-pyrrolo[2,3-d]pyrimidin-5-yl]methanone], the figures for the IC50 on BCR-KIT BaF3 cells, on BCR-NTRK2 BaF3 cells and on BCR-NTRK1 BaF3 cells were < 0.1 µM, < 0.01 µM and < 0.01 µM, respectively.
As for `COCCCNc1ncnc2[nH]cc(C(=O)c3ccc(Nc4ccc(OC)nc4)nc3F)c12` [Compound P-4079, [2-fluoro-6-[(6-methoxy-3-pyridyl)amino]-3-pyridyl]-[4-(3-methoxypropylamino)-7H-pyrrolo[2,3-d]pyrimidin-5-yl]methanone], the IC50 on BCR-KIT BaF3 cells is < 0.1 µM; at BCR-NTRK2 BaF3 cells, < 0.01 µM; at BCR-NTRK1 BaF3 cells, < 0.01 µM.
`CCCCNc1ncnc2[nH]cc(C(=O)c3ccc(Nc4ccc(OC)nc4)nc3F)c12` [Compound P-4080, [4-(butylamino)-7H-pyrrolo[2,3-d]pyrimidin-5-yl]-[2-fluoro-6-[(6-methoxy-3-pyridyl)amino]-3-pyridyl]methanone]: the IC50 on BCR-KIT BaF3 cells is < 0.1 µM; on BCR-NTRK2 BaF3 cells, < 0.01 µM; on BCR-NTRK1 BaF3 cells it was < 0.01 µM.
